Source: patent US8399417B2, “Food” (Ajinomoto Co., Inc., priority 2007, dated 2013)
Starred links: 1 amine or outer side, 2 acyl side, 3 side chain; linkers in the order of their positions; H or OH if unused. Non-standard residues stand in square brackets, D forms with d. No end group written: not given here. γGlu = O=C(O)[C@H](CCC(=O)[*:2])N[*:1]; Orn = NCCC[C@H](N)C(=O)O

Columns and labels:
[1] = biological target: T1, human calcium receptor (Homo sapiens, UniProt P41180); assay: Calcium receptor-activating effect: Ca ion concentration-dependent Cl ionic current in Xenopus laevis oocyte expression system; type: cell-based; details: for Activity (lowest concentration at which current was detected): peptide added at 1,000 to 0.1 μM to potential-clamped oocytes, Table 1
T1 construct: expressed in transfected cells; host or cells: Xenopus laevis oocytes injected with cRNA; the gene was PCR-cloned from human kidney cDNA (Clontech) into pBR322
T1 sequence (P41180 20-1078): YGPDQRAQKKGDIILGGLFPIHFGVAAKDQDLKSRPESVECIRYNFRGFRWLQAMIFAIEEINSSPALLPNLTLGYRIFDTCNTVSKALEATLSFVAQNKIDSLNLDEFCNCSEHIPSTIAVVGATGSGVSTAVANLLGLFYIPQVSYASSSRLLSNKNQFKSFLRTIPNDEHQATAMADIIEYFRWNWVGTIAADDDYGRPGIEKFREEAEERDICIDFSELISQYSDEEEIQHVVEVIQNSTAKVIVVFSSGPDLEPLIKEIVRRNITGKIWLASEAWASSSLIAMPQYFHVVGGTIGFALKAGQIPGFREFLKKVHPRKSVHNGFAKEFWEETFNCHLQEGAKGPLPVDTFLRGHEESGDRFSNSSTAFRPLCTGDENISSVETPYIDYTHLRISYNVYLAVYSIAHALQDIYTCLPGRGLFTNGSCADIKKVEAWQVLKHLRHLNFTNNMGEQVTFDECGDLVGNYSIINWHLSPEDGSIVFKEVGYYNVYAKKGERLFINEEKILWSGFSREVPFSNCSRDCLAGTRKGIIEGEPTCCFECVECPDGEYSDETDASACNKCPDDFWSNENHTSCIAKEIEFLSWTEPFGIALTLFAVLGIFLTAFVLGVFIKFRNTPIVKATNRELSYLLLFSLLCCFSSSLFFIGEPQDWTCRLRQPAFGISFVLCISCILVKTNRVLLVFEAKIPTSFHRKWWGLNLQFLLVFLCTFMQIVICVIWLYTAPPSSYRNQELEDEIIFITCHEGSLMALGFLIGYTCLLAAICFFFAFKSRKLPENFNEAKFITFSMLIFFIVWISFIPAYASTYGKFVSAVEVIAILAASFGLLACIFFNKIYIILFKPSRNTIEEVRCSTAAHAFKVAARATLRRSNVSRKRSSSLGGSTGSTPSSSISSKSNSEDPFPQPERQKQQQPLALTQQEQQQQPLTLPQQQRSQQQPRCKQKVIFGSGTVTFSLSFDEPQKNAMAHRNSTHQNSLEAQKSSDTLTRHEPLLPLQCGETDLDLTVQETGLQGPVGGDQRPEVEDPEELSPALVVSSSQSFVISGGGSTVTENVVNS
Protocol: For evaluation of the calcium receptor-activating effect, a Ca ion concentration-dependent Cl ionic current measuring method using a Xenopus laevis oocyte expression system was used. If each activator is added to Xenopus laevis oocytes expressing the calcium receptor, intracellular Ca ions increase. Then, the Ca ion concentration-dependent Cl channel opens, and the intracellular current value changes as an ionic current. By measuring the change in the intracellular current value, whether the calcium receptor-activating effect is present or not can be determined.
Specifically, the abdomen of Xenopus laevis was opened, and an egg batch was taken out and then treated with a 1% collagenase solution at 20° C. for 2 hours to obtain individual oocytes. Into the oocytes, 50 nl of 1 μg/μl receptor cRNA or 50 nl of sterilized water per oocyte were injected by using a micro glass capillary, and the oocytes were cultured at 18° C. for 2 to 3 days. For the culture, a solution obtained by adding 2 mM pyruvic acid, 10 U/ml penicillin, and 10 μg/ml streptomycin to the solution in Reference Example 2 was used. After the culture, a test solution was added to the oocytes injected with cRNA or sterilized water. Electrophysiological measurement was performed by using an amplifier Geneclamp 500 (manufactured by Axon) and recording software AxoScope 9.0 (manufactured by Axon). The oocytes were membrane potential-clamped at −70 mV by the double electrode potential clamp method, and the intracellular current via the Ca ion concentration-dependent Cl ion was measured. The maximum value of the intracellular current was defined as the response current value.
The calcium receptor-activating effect of L-amino acids was evaluated by using the method described in Reference Example 6. That is, oocytes injected with cRNA of the calcium receptor or sterilized water were prepared, and membrane potential-clamped at −70 mV by the double electrode potential clamp method. To the potential-clamped oocytes, alanine (10 mM), arginine (10 mM), asparagine (10 mM), aspartic acid (10 mM), cysteine (10 mM), glutamine (10 mM), glutamic acid (10 mM), glycine (10 mM), histidine (10 mM), isoleucine (10 mM), leucine (10 mM), lysine (10 mM), methionine (10 mM), phenylalanine (10 mM), proline (10 mM), serine (10 mM), threonine (10 mM), tryptophan (10 mM), tyrosine (10 mM), valine (10 mM), ornithine (10 mM), taurine (10 mM), or hydroxyproline (10 mM) was added, and Ca ion concentration-dependent Cl response current was measured. […] 25, 2000, 97(9): 4814-9.
The calcium receptor-activating effect of D-cysteine was evaluated by using the method described in Reference Example 6. That is, oocytes injected with cRNA of the calcium receptor or sterilized water were prepared, and membrane potential-clamped at −70 mV by the double electrode potential clamp method. To the potential-clamped oocytes, D-cysteine (10 mM), L-cysteine (10 mM), D-tryptophan (10 mM), or L-tryptophan (10 mM) was added, and Ca ion concentration-dependent Cl response current was measured.
The calcium receptor-activating effect of a peptide was evaluated by using the method described in Reference Example 6. That is, oocytes injected with cRNA of the calcium receptor or sterilized water were prepared, and membrane potential-clamped at −70 mV by the double electrode potential clamp method.
The calcium receptor-activating effects of peptides were evaluated in the same manner as that of Reference Example 10. Each of the peptides shown in Table 1 was added to potential-clamped oocytes at 1,000 μM, 300 μM, 100 μM, 30 μM, 10 μM, 3 μM, 1 μM, 0.3 μM, and 0.1 μM, and Ca ion concentration-dependent Cl response current was measured.

[2] = Kokumi-imparting activity intensity, quantitative sensory evaluation test; type: in vivo, human; details: 0.1 g/dl; for Kokumi intensity, Aftertaste / Kokumi intensity, Initial and middle taste: control 0, glutathione 3 points
Protocol: The quantitative sensory evaluation test was performed as follows. […] It should be noted that a sample, which became acidic after the sample had been dissolved, was adjusted with NaOH to pH 6.8 to 7.2 before use. […] The test was performed with n=3 based on the following sensory evaluation scores: control (0 point) and glutathione addition (3 points).
The quantitative sensory evaluation test was performed as follows. […] It should be noted that a sample, which became acidic after the sample had been dissolved, was adjusted with NaOH to pH 6.8 to 7.2 before use. The test was performed with n=5 based on the following sensory evaluation scores: control (0 point) and glutathione addition (3 points).
The quantitative sensory evaluation test was performed as follows. […] It should be noted that a sample, which became acidic after the sample had been dissolved, was adjusted with NaOH to pH 6.8 to 7.2 before use. The test was performed with n=12 based on the following sensory evaluation scores: control (0 point) and glutathione addition (3 points).

[3] = sodium glutamate, inosine monophosphate, sodium chloride solution, n=3, Table 3

Compound: N[C@H](CS)C(=O)O [D-cysteine]
- calcium receptor-activating effect (Cl response current) ([1]; D-amino acid 10 mM, FIG. 3): definite calcium receptor-activating effect

Compound: N[C@@H](CS)C(=O)O [cysteine, reference compound]
- calcium receptor-activating effect (Cl response current) ([1]; L-amino acid 10 mM, FIG. 2): definite calcium receptor-activating effect

Compound: N[C@@H](Cc1c[nH]cn1)C(=O)O [histidine, reference compound]
- calcium receptor-activating effect (Cl response current) ([1]; L-amino acid 10 mM, FIG. 2): definite calcium receptor-activating effect

Compound: N[C@@H](Cc1ccccc1)C(=O)O [phenylalanine, reference compound]
- calcium receptor-activating effect (Cl response current) ([1]; L-amino acid 10 mM, FIG. 2): definite calcium receptor-activating effect

Compound: N[C@@H](Cc1c[nH]c2ccccc12)C(=O)O [tryptophan, reference compound]
- calcium receptor-activating effect (Cl response current) ([1]; L-amino acid 10 mM, FIG. 2): definite calcium receptor-activating effect

Compound: N[C@@H](Cc1ccc(O)cc1)C(=O)O [tyrosine, reference compound]
- calcium receptor-activating effect (Cl response current) ([1]; L-amino acid 10 mM, FIG. 2): definite calcium receptor-activating effect

Compound: N[C@@H](CCC(=O)N[C@@H](CSN=O)C(=O)NCC(=O)O)C(=O)O [γ-Glu-Cys(SNO)-Gly]
- calcium receptor-activating effect (Cl response current) ([1]; peptide 50 μM, FIG. 4): definite calcium receptor-activating effect

Compound: Asp-Gly
- calcium receptor-activating effect (Cl response current) ([1]; peptide 1 mM, FIG. 4): definite calcium receptor-activating effect

Compound: Cys-Gly
- calcium receptor-activating effect (Cl response current) ([1]; peptide 1 mM, FIG. 4): definite calcium receptor-activating effect

Compound: Cys-Met
- calcium receptor-activating effect (Cl response current) ([1]; peptide 1 mM, FIG. 4): definite calcium receptor-activating effect

Compound: Glu-Cys
- calcium receptor-activating effect (Cl response current) ([1]; peptide 50 μM, FIG. 4): definite calcium receptor-activating effect

Compound: Gly-Cys
- calcium receptor-activating effect (Cl response current) ([1]; peptide 500 μM, FIG. 4): definite calcium receptor-activating effect

Compound: Leu-Asp
- calcium receptor-activating effect (Cl response current) ([1]; peptide 1 mM, FIG. 4): definite calcium receptor-activating effect

Compound: [γGlu]-Ala
- Kokumi intensity, Aftertaste ([2]; n=3, Table 3): 0.2 points
- Kokumi intensity, Initial and middle taste [2, 3]: 0.5 points
- calcium receptor-activating effect (Cl response current) ([1]; peptide 50 μM, FIG. 4): definite calcium receptor-activating effect

Compound: [γGlu]-Cys
- Kokumi intensity, Aftertaste ([2]; n=5, Table 4): 2.0 points
- Kokumi intensity, Initial and middle taste ([2]; n=5, Table 4): 2.0 points
- calcium receptor-activating effect (Cl response current) ([1]; peptide 50 μM, FIG. 4): definite calcium receptor-activating effect

Compound: [γGlu]-Gly
- calcium receptor-activating effect (Cl response current) ([1]; peptide 500 μM, FIG. 4): definite calcium receptor-activating effect

Compound: [γGlu]-Gly-Gly
- Activity (lowest concentration at which current was detected) [1]: 30 µM

Compound: [γGlu]-Met
- Taste profile ([2]; n=3, Table 3): Thickness and growth are slightly
- Kokumi intensity, Aftertaste ([2]; n=3, Table 3): 0.4 points
- Kokumi intensity, Initial and middle taste [2, 3]: 1.5 points
- calcium receptor-activating effect (Cl response current) ([1]; peptide 500 μM, FIG. 4): definite calcium receptor-activating effect

Compound: [γGlu]-Ser-Gly
- Activity (lowest concentration at which current was detected) [1]: 30 µM

Compound: [γGlu]-Thr
- calcium receptor-activating effect (Cl response current) ([1]; peptide 50 μM, FIG. 4): definite calcium receptor-activating effect

Compound: [γGlu]-Val
- Kokumi intensity, Aftertaste ([2]; n=3, Table 3): 1.0 points
- Kokumi intensity, Aftertaste ([2]; n=5, Table 4): 1.0 points
- Kokumi intensity, Initial and middle taste ([2]; n=5, Table 4): 3.0 points
- Kokumi intensity, Initial and middle taste [2, 3]: 3.0 points
- calcium receptor-activating effect (Cl response current) ([1]; peptide 50 μM, FIG. 4): definite calcium receptor-activating effect

Compound: [γGlu]-Val-Arg
- Activity (lowest concentration at which current was detected) [1]: 1,000 μM

Compound: [γGlu]-Val-Asn
- Activity (lowest concentration at which current was detected) [1]: 30 µM

Compound: [γGlu]-Val-Cys
- Activity (lowest concentration at which current was detected) [1]: 10 µM

Compound: [γGlu]-Val-Gln
- Activity (lowest concentration at which current was detected) [1]: 10 µM

Compound: [γGlu]-Val-Glu
- Activity (lowest concentration at which current was detected) [1]: 1,000 μM

Compound: [γGlu]-Val-His
- Activity (lowest concentration at which current was detected) [1]: 100 µM

Compound: [γGlu]-Val-Lys
- Activity (lowest concentration at which current was detected) [1]: 1,000 μM

Compound: [γGlu]-Val-Met
- Activity (lowest concentration at which current was detected) [1]: 1,000 μM

Compound: [γGlu]-Val-Phe
- Activity (lowest concentration at which current was detected) [1]: 30 µM

Compound: [γGlu]-Val-Pro
- Activity (lowest concentration at which current was detected) [1]: 30 µM

Compound: [γGlu]-Val-Ser
- Activity (lowest concentration at which current was detected) [1]: 30 µM

Compound: [γGlu]-Val-Thr
- Activity (lowest concentration at which current was detected) [1]: 1,000 μM

Compound: [γGlu]-Val-Val
- Activity (lowest concentration at which current was detected) [1]: 1,000 μM

Compound: [γGlu]-Val-[Orn]
- Activity (lowest concentration at which current was detected) [1]: 100 µM

Compound: [γGlu]-[γGlu]-Val
- Activity (lowest concentration at which current was detected) [1]: 1,000 μM

Compound: γ-Glu-Cys(S-Me)-Gly
- Activity (lowest concentration at which current was detected) [1]: 3 µM

Compound: γ-Glu-Cys(S-allyl)-Gly
- Activity (lowest concentration at which current was detected) [1]: 100 µM

Compound: γ-Glu-Orn
- calcium receptor-activating effect (Cl response current) ([1]; peptide 500 μM, FIG. 4): definite calcium receptor-activating effect

Compound: γ-Glu-Tau
- Activity (lowest concentration at which current was detected) [1]: 300 µM

Compound: γ-Glu-Val-Asp
- Activity (lowest concentration at which current was detected) [1]: 1,000 μM

Compound: γ-Glu-t-Leu
- Activity (lowest concentration at which current was detected) [1]: 100 µM
